The text below walks through data of US7674813B2, “Heterocyclic sulfonamide inhibitors of beta amyloid production containing an azole” (Wyeth, priority 2004, dated 2010).

The subject of one series is beta amyloid 42. Put plainly: Aβ40/42 ELISA Assay (Aβ42). The following applies: CHO cells carrying the APP-REP-NL plasmid, 22 hours, sandwich ELISA; for EC50: Cricetulus griseus. The series is classed as cell-based. As to the method:
(§1) Compounds are diluted from DMSO stocks to 2 μM and below in a cell culture medium. Compounds are then applied to CHO cells carrying the APP-REP-NL plasmid [Sudhir et. al, J. Biolog. Chem. 267:25602-25608 (1992)] for a period of 22 hours. After the conditioning period, medium is collected, diluted in assay buffer containing protein, and samples, controls, and synthetic peptide standards are incubated on a prepared ELISA plate. Using a sandwich ELISA with antibodies specifically directed against the carboxyl terminus of beta amyloid 40 or 42 (analogous to the method reported by Haugabook et al., J. Neurosci. Methods 108:171-179 (2001) but using goat anti-mouse IgG1 (source: Southern Biotech) as the anchor, 6E10 as the capture antibody (Source: SENETEK), rabbit antiAβ40 and antiAβ42 (source: QCB) and APL-donkey anti-rabbit IgG (H+L, source: Southern Biotech) as the detection antibody), the effect of the compound treatment on the cellular production of extracellular beta amyloid is quantified. Cells treated with compound are subsequently incubated in cell culture medium containing MTS-formazan. After a short incubation period, MTS/medium containing plates are read in a spectrophotometer to determine the extent to which compound toxicity affected the cell's metabolism and ability to synthesize beta amyloid.
(§2) A. Test Samples: compound samples are supplied as 20 mM stock solutions in a 100% DMSO solution.
(§3) B. APP-REP-NL cells: Qualified cell lines are carried from week to week using 1:100 dilutions and are cultured in DMEM supplemented with 1× antibiotic/antimycotic, 200 ug/ml of G418 antibiotic, and 10% certified fetal calf serum. Cells are also banked in liquid nitrogen. Periodically, beta amyloid production is assessed, and cells are either kept in culture or replaced with progenitors at full expression.
(§4) C. Antibodies: From certified lots that have already been qualified in this assay. Antibodies are stored in small frozen aliquots at −80° C. that are thawed and used.
(§5) A compound is considered active if it has an EC50 for Aβ40 reduction of <100 μM and no toxicity at doses in the vicinity of the EC50.
(In general: An ELISA detects its analyte on a solid surface through an enzyme-linked reagent.)

Another series has as its system beta amyloid 40. Description: Aβ40/42 ELISA Assay (Aβ40). It counts as cell-based. The following applies: Cricetulus griseus; CHO cells carrying the APP-REP-NL plasmid, 22 hours, sandwich ELISA. As to the method: as §1, §2, §3, §4, §5
Series [1] deals with amyloid precursor protein (APP) proteolysis. Put plainly: Repressor Release Assay (RRA). The series is classed as cell-based. The following applies: Cricetulus griseus, CHO-K1, all compounds tested at 20 μg/mL; luciferase activity over diluent control; transfected CHO-K1 cells; read-out: RRA data (Fold increase of APPI). As to the method:
The beta amyloid inhibitory activity of many of the compounds of the present invention has been determined using the Repressor Release Assay (RRA). See, Table 3 below. A compound is considered active in RRA if it leads to at least a 1.5 fold increase in luciferase activity at 20 μg/mL and is non-toxic.
The compound is considered active in RRA if it leads to at least a 1.5 fold increase in APPI as measured by an increase in luciferase activity at 20 μg/mL and is non-toxic. Shuey, D. J., Sheiffele, P., Jones, D., Cockett, M. I., and Quinet, E. M. (1999) Repressor release: a useful tool for monitoring amyloid precursor protein (APP) proteolysis in mammalian cells. Society for Neuroscience Abstracts, Vol. 25, 29th Annual Meeting of Society for Neuroscience, Miami Beach, Fla., Oct. 23-28, 1999.
CHO—K1 cells are cultured in whole DMEM media (DMEM—High Glucose with 10% fetal bovine serum, 1% Non-essential Amino Acids, and 1% Penicillin-Streptomycin) at 37° C. with 5% CO2. Two million cells are plated into 10-cm dishes 24 hrs prior to transfection.
Transient transfections are completed as recommended by Gibco BRL using their Lipofectamine Plus system. First, 6 μg of pRSVO-luc and 6 μg of APP-lacI construct DNA are added to 460 μL Opti-Mem transfection media and incubated with 30 μL Plus reagent for 15 minutes. Then, a lipid mixture of 40 μL Lipofectamine reagent and 460 μL Opti-Mem transfection media is incubated with the DNA-Plus reagent mixture for 15 minutes. During the DNA-lipid incubation, the CHO—K1 cells are washed once and covered in 5.0 mL DMEM media without Penicillin-Streptomycin. The DNA-lipid preparation is then layered onto these cells and incubated at 37° C. overnight.
One and one half million transfected cells per well (100 μL total volume) are plated into sterile, opaque Packard 96-well Cultur-Plates in clear DMEM whole media (DMEM—without phenol red) and incubated at 37° C. with 5% CO2 for 3-5 hours.
Compounds are diluted using two different protocols; one protocol is used for compounds supplied neat (weighed powder in vial) and the other protocol is used for compounds supplied in solution (20 mM in DMSO in 96-well plates). For both protocols, 25 mM Hepes and 25 mM Hepes/1% DMSO are prepared fresh to be used as diluent. The Hepes/DMSO is used as the diluent control on all experimental plates.
The following Table 1 depicts the steps for compound dilution (the last step is the addition of compound to cells/media in tissue culture plate):
Because some compounds arrive in 96-well format at 20 mM, the following Table 2 represents the protocol for their dilution (an average molecular weight of these compounds was used to calculate these dilutions and as above, the last step is the addition of compound to cells/media in tissue culture plate):
Once compounds are diluted, they are applied in duplicate on cells in tissue culture plates (prepared above). Cells are incubated with compound at 37° C. with 5% CO2 for an additional 36-48 hours.
Luciferase assays (LucLite reagent, Packard) are performed and are read on a Packard TopCount instrument. Media is removed from each 96-well plate and replaced with 100 μL PBS per well (with Mg^2+ and Ca^2+). An equal volume (100 μL) of the LucLite lysis/substrate buffer is added to each well and the plates are sealed and mixed in the dark on a rotary shaker for 15-30 minutes at room temperature. Luciferase readings are then taken on the TopCount instrument. Measurements are expressed as relative light units (RLU) and are calculated and analyzed in MS Excel as follows:
Fold Increase: amount of luciferase activity (measured in relative light units) over diluent control.
SEM: standard error of the mean for fold increase.
Activity: A compound is considered active if it results in at least a 1.5 fold increase in luciferase activity at 20 μg/mL.
Toxicity: determined by loss of signal (<0.75 fold increase).

One may read the EC50 as the concentration needed to bring the measured effect to its halfway point. What is called melting point is the temperature, or range, at which the solid turns liquid. As to `CCC(CC)C(NS(=O)(=O)c1cc(Cl)c(Cl)s1)c1ccnn1-c1ccccc1` (centres unmarked) [Example 38, 4,5-Dichloro-N-[2-ethyl-1-(1-phenyl-1H-pyrazol-5-yl)butyl]thiophene-2-sulfonamide], the melting point lay in the range of 116 to 119.6 °C. Further, in the series on beta amyloid 42, the “Effect on Aβ42 production” value is recorded as “increase”. For the same molecule, in the series on beta amyloid 40, a half-maximal effect (EC50) was put at 13.3 µM.
On to `CCC(CC)C(c1ccnn1-c1ccccc1)N(C)S(=O)(=O)c1ccc(Cl)cc1` (centres unmarked) [Example 44, 4-Chloro-N-[2-ethyl-1-(1-phenyl-1H-pyrazol-5-yl)butyl]-N-methylbenzenesulfonamide], for which the melting point lay within 86.5 to 89 °C. In the series with beta amyloid 40, this molecule gave an EC50 of 35.7 µM.
Regarding `CCC(CC)C(c1ccnn1-c1ccccc1)N(C)S(=O)(=O)c1ccc(Cl)s1` (centres unmarked) [Example 46, 5-Chloro-N-[2-ethyl-1-(1-phenyl-1H-pyrazol-5-yl)butyl]-N-methylthiophene-2-sulfonamide], the melting point lay within 125.8 to 127.6 °C. In addition, the “Effect on Aβ42 production” value with beta amyloid 42 is recorded as “increase”. The molecule also came in with an EC50 in the series with beta amyloid 40 of 70.1 µM.
Molecule `O=S(=O)(NC(c1ccc(F)cc1)c1ccnn1-c1ccc(F)cc1)c1ccc(Cl)s1` (centres unmarked) [Example 34, 5-Chloro-N-{(4-fluorophenyl) [1-(4-fluorophenyl)-1H-pyrazol-5-yl]methyl}thiophene-2-sulfonamide] had a melting point of 159 to 160 °C. This molecule showed an EC50 in the series on beta amyloid 42 of 10.1 µM. Besides, the concentration giving a half-maximal response (EC50) with beta amyloid 40 was 5.8 µM.
In turn, `CCC(CC)C(NS(=O)(=O)c1ccc(Cl)c(Cl)c1)c1ccnn1-c1ccccc1` (centres unmarked) [Example 39, 3,4-Dichloro-N-[2-ethyl-1-(1-phenyl-1H-pyrazol-5-yl)butyl]benzenesulfonamide] registered a melting point of 56 to 66 °C. Also, the “Effect on Aβ42 production” value in the series with beta amyloid 42 is given as “increase”. Also, the EC50 with beta amyloid 40 was found to be 25.5 µM.
Consider `CCC(CC)C(NS(=O)(=O)c1ccc(Cl)s1)c1ncnn1Cc1ccccc1` (centres unmarked) [Example 22, N-[1-(1-Benzyl-1H-1,2,4-triazol-5-yl)-2-ethylbutyl]-5-chlorothiophene-2-sulfonamide], for which, in series [1], the fold induction at 20 µg/mL came out at 7.2. The EC50 in the series on beta amyloid 42 and in the series with beta amyloid 40 was 1.5 µM throughout.
In the case of `CCC(CC)C(NS(=O)(=O)c1ccc(Cl)s1)c1ccnn1Cc1ccc(OC)cc1` (centres unmarked) [Example 1, 5-Chloro-N-{2-ethyl-1-[1-(4-methoxybenzyl)-1H-pyrazol-5-yl]butyl}thiophene-2-sulfonamide], the fold induction at 20 µg/mL in series [1] was found to be 7.8. Moreover, the EC50 in the series with beta amyloid 42 and in the series on beta amyloid 40 was 1 µM each time.
`CCC(CC)C(NS(=O)(=O)c1ccc(Cl)s1)c1ncnn1Cc1ccc(OC(F)(F)F)cc1` (centres unmarked) [Example 20, 5-Chloro-N-(2-ethyl-1-{1-[4-(trifluoromethoxy)benzyl]-1H-1,2,4-triazol-5-yl}butyl)thiophene-2-sulfonamide]: in series [1], the fold induction at 20 µg/mL came out at 9.8. Moreover, the EC50 with beta amyloid 42 amounted to 4.3 µM; in the series with beta amyloid 40, 2.4 µM.
For the molecule `CCC(CC)C(NS(=O)(=O)c1ccc(Cl)s1)c1ccnn1-c1ccc(OC)cc1` (centres unmarked) [Example 10, 5-Chloro-N-{2-ethyl-1-[1-(4-methoxyphenyl)-1H-pyrazol-5-yl]butyl}thiophene-2-sulfonamide], the fold induction at 20 µg/mL in series [1] worked out at 1.7. Further, the EC50 was 10.1 µM with beta amyloid 42 and 4 µM in the series on beta amyloid 40.
The matching figures for `COc1ccc(Cn2nccc2C(NS(=O)(=O)c2ccc(Cl)s2)C(C)C)cc1` (centres unmarked) [Example 5, 5-Chloro-N-{1-[1-(4-methoxybenzyl)-1H-pyrazol-5-yl]-2-methylpropyl}thiophene-2-sulfonamide]: 3.5, 0.9 µM and 1.1 µM.
The matching figures for `CCCC(NS(=O)(=O)c1ccc(Cl)s1)c1ccnn1Cc1ccc(OC)cc1` (centres unmarked) [Example 6, 5-Chloro-N-{1-[1-(4-methoxybenzyl)-1H-pyrazol-5-yl]butyl}thiophene-2-sulfonamide]: 4.7, 1.4 µM and 1.5 µM.
The matching figures for `CCCCn1nccc1C(NS(=O)(=O)c1ccc(Cl)s1)C(CC)CC` (centres unmarked) [Example 7, N-[1-(1-Butyl-1H-pyrazol-5-yl)-2-ethylbutyl]-5-chlorothiophene-2-sulfonamide]: 5.4, 2.7 µM and 2.4 µM.
For `CCC(CC)C(NS(=O)(=O)c1ccc(Cl)s1)c1nccn1Cc1ccc(OC)cc1` (centres unmarked) [Example 29, 5-Chloro-N-{2-ethyl-1-[1-(4-methoxybenzyl)-1H-imidazol-2-yl]butyl}thiophene-2-sulfonamide], the fold induction at 20 µg/mL in series [1] was determined as 1.9. The EC50 in the series with beta amyloid 42 came out at 52.5 µM; in the series on beta amyloid 40, 50.7 µM.
The matching figures for `COc1ccc(Cn2nccc2C(C)NS(=O)(=O)c2ccc(Cl)s2)cc1` (centres unmarked) [Example 4, 5-Chloro-N-{1-[1-(4-methoxybenzyl)-1H-pyrazol-5-yl]ethyl}thiophene-2-sulfonamide]: 2.3, 1.3 µM and 1.8 µM.
The matching figures for `CC(NS(=O)(=O)c1ccc(Cl)s1)c1ccnn1-c1ccccc1` (centres unmarked) [Example 13, 5-Chloro-N-[1-(1-phenyl-1H-pyrazol-5-yl)ethyl]thiophene-2-sulfonamide]: 6.4, 5.1 µM and 4.8 µM.
The matching figures for `Cc1cccc(-n2nccc2C(NS(=O)(=O)c2ccc(Cl)s2)C(C)C)c1` (centres unmarked) [Example 16, 5-Chloro-N-{2-methyl-1-[1-(3-methylphenyl)-1H-pyrazol-5-yl]propyl}thiophene-2-sulfonamide]: 4, 4.4 µM and 3.5 µM.
